# Laboratory results taken from patent US20110046127A1, “Imidazopyridazines for Use as Protein Kinase Inhibitors” (priority 2007, published 2011).
# System: T1, PIM-1 or PIM-2
# T1 construct: fused on or other part: C-terminal histidine tag (PIM-1 enzyme); N-terminal histidine tag (PIM-2 enzyme)
# Test: PIM-1 / PIM-2 biochemical assay (ADP Hunter assay kit)
# Design: species or system human
# Details: tested in either the PIM-1 or the PIM-2 biochemical assay (as appropriate); ATP 100 μM
# Excerpt: The biochemical assay to measure PIM-1 activity relies on the ADP Hunter assay kit (DiscoveRx Corp., Cat. # 90-0077), that determines the amount of ADP as direct product of the kinase enzyme activity.
# The enzyme has been expressed and purified in-house as a recombinant human protein with a C-terminal histidine tag. The protein is active and stable.
# (§1) Assay conditions were as indicated by the kit manufacturers with the following adaptations for the kinase activity step: • Kinase assay buffer and assay volume stay as recommended (15 mM HEPES, pH 7.4, 20 mM NaCl, 1 mM EGTA, 0.02% Tween 20, 10 mM MgCl2 and 0.1 mg/ml bovine γ-globulins/75 μl assay volume) • Incubation time and temperature: 60 min at 30° C. • PIM-1 concentration: 50 pg/μl • ATP concentration: 100 μM • PIM-1 substrate peptide: PIMtide (ARKRRRHPSGPPTA) • Peptide concentration: 60 μM • Positive control for kinase activity inhibition: 1-10 μM Staurosporine • DMSO concentration have to stay below 2% during the kinase reaction
# Assays were performed in either 96 or 384-well plates. The final outcome of the coupled reactions provided by the kit is the release of the fluorescent product Resorufin and has been measured with a multilabel HTS counter VICTOR V (PerkinElmer) using an excitation filter at 544 nm and an emission filter at 580 nm.
# The biochemical assay to measure PIM-2 activity relies on the ADP Hunter assay kit (DiscoveRx Corp., Cat. # 90-0077), that determines the amount of ADP as direct product of the kinase enzyme activity.
# The enzyme has been expressed and purified in-house as a recombinant human protein with a N-terminal histidine tag. The protein is active and stable.
# as §1, with “mg/ml bovine γ-globulins/20 μl assay” for “mg/ml bovine γ-globulins/75 μl assay”, “and temperature: 30 min at” for “and temperature: 60 min at”, “C. • PIM-2 concentration: 350” for “C. • PIM-1 concentration: 50”, “PIM-2 concentration: 350 pg/μl •” for “PIM-1 concentration: 50 pg/μl •”, “Peptide concentration: 100 μM •” for “Peptide concentration: 60 μM •”
row,Compound,IC50 [nM]
1,"COc1ccc(NC(=O)c2cnc3ccc(NCc4ccco4)nn23)cc1OC [Example 15, 6-[(Furan-2-ylmethyl)-amino]-imidazo[1,2-b]pyridazine-3-carboxylic acid (3,4-dimethoxy-phenyl)-amide]",4030
2,"COCCNC(=O)c1cnc2ccc(NCc3ccc(Cl)c(Cl)c3)nn12 [Example 19, 6-(3,4-Dichloro-benzylamino)-imidazo[1,2-b]pyridazine-3-carboxylic acid (2-methoxy-ethyl)-amide]",4660
3,"CC(=O)c1cccc(NC(=O)c2cnc3ccc(NCc4ccc(Cl)c(Cl)c4)nn23)c1 [Example 22, 6-(3,4-Dichloro-benzylamino)-imidazo[1,2-b]pyridazine-3-carboxylic acid (3-acetylphenyl)amide]",33000
4,"CCNC(=O)c1cnc2ccc(NCc3ccc(Cl)c(Cl)c3)nn12 [Example 25, 6-(3,4-Dichloro-benzylamino)-imidazo[1,2-b]pyridazine-3-carboxylic acid ethylamide]",2200
5,"COc1ccc(CNc2ccc3ncc(C(=O)Nc4cccc(C(=O)O)c4)n3n2)cc1 [Example 31, 3-{[6-(4-Methoxy-benzylamino)-imidazo[1,2-b]pyridazine-3-carbonyl]-amino}-benzoic acid]",7380
6,"O=C(Nc1ccccc1)c1cnc2ccc(OCc3ccccc3)nn12 [Example 34, 6-Benzyloxy-imidazo[1,2-b]pyridazine-3-carboxylic acid phenylamide]",11000
7,O=C(Nc1ccccc1)c1cnc2ccc(Oc3ccc(F)cc3)nn12 [Example 36],2260
8,"O=C(Nc1ccccc1)c1cnc2ccc(-n3ccnc3)nn12 [Example 38, 6-Imidazol-1-yl-imidazo[1,2-b]pyridazine-3-carboxylic acid phenylamide]",4630

# These reach a lower IC50. Values come first.
row,IC50 [nM],Compound
1,80,"COc1ccc(NC(=O)c2cnc3ccc(NCc4ccc(F)cc4)nn23)cc1 [Example 11, 6-(4-Fluoro-benzylamino)-imidazo[1,2-b]pyridazine-3-carboxylic acid (4-methoxy-phenyl)-amide]"
2,430,"O=C(Nc1ccc2[nH]ccc2c1)c1cnc2ccc(NCc3ccc(Cl)c(Cl)c3)nn12 [Example 17, 6-(3,4-Dichloro-benzylamino)-imidazo[1,2-b]pyridazine-3-carboxylic acid (1H-indol-5-yl)-amide]"
3,60,"O=C(Nc1ccccc1)c1cnc2ccc(NCc3ccc(Cl)c(Cl)c3)nn12 [Example 18, 6-(3,4-Dichloro-benzylamino)-imidazo[1,2-b]pyridazine-3-carboxylic acid phenyl-amide]"
4,130,"O=C(Nc1cccnc1)c1cnc2ccc(NCc3ccc(Cl)c(Cl)c3)nn12 [Example 23, 6-(3,4-Dichloro-benzylamino)-imidazo[1,2-b]pyridazine-3-carboxylic acid pyridin-3-yl-amide]"
5,1140,COc1ccc(NC(=O)c2cnc3ccc(NCc4ccc(S(N)(=O)=O)cc4)nn23)cn1 [Example 27]
6,260,"O=C(O)c1ccc(NC(=O)c2cnc3ccc(NCc4ccc(Cl)c(Cl)c4)nn23)cc1 [Example 29, 4-{[6-(3,4-Dichloro-benzylamino)-imidazo[1,2-b]pyridazine-3-carbonyl]-amino}-benzoic acid]"
7,380,COc1ccc(CNc2ccc3ncc(C(=O)Nc4ccc(C(=O)O)cc4)n3n2)cc1 [Example 30]
8,70,"O=C(Nc1ccc(O)cc1)c1cnc2ccc(NCc3ccc(F)cc3)nn12 [Example 32, 6-(4-Fluoro-benzylamino)-imidazo[1,2-b]pyridazine-3-carboxylic acid (4-hydroxy-phenyl)-amide]"
9,120,"O=C(Nc1ccccc1)c1cnc2ccc(Oc3ccccc3)nn12 [Example 35, 6-Phenoxy-imidazo[1,2-b]pyridazine-3-carboxylic acid phenylamide]"
10,530,"O=C(Nc1ccccc1)c1cnc2ccc(-n3cccc3)nn12 [Example 37, 6-Pyrrol-1-yl-imidazo[1,2-b]pyridazine-3-carboxylic acid phenylamide]"
